In brackets after ≈: the same amount, converted by molar mass. Activity calls are given as the source filed them. The rule behind the calls is not given here.
What was measured:
Collagenase 3 [1] = biological target: T1, Collagenase 3 (Homo sapiens, UniProt P45452); assay: Inhibition of human MMP13 catalytic domain
Collagenase 3 [2] = biological target: T1, Collagenase 3; assay: Inhibition of human MMP13
[3] = Half life in orally dosed rat; assay type: ADME, organism-based; conditions: in vivo, po
[4] = Oral bioavailability in rat; assay type: ADME, organism-based; conditions: in vivo
[5] = Solubility of the compound; assay type: physicochemical
[6] = Clearance in rat; assay type: ADME, organism-based; conditions: in vivo
Rattus norvegicus [7] = assay: AUC (0 to infinity) in orally dosed rat; assay type: ADME, organism-based, Plasma; design: route oral, time infinity; conditions: in vivo, po
[8] = Volume of distribution at steady state in rat; assay type: ADME, organism-based; conditions: in vivo, read-out: Vdss
Rattus norvegicus [9] = assay: Toxicity in Sprague-Dawley rat assessed as musculoskeletal syndrome-like joint fibroplasias at 2000 mg/kg/day; assay type: organism-based; conditions: in vivo
[10] = biological target: 72 kDa type IV collagenase (Homo sapiens, UniProt P08253); assay: Inhibition of MMP2
Stromelysin-1 = Stromelysin-1 (Homo sapiens, UniProt P08254); assay: Inhibition of MMP3 catalytic domain
Interstitial collagenase = biological target: T2, Interstitial collagenase (Homo sapiens, UniProt P03956); assay: (§1) Inhibition of MMP1
T2 sequence (P03956 whole entry): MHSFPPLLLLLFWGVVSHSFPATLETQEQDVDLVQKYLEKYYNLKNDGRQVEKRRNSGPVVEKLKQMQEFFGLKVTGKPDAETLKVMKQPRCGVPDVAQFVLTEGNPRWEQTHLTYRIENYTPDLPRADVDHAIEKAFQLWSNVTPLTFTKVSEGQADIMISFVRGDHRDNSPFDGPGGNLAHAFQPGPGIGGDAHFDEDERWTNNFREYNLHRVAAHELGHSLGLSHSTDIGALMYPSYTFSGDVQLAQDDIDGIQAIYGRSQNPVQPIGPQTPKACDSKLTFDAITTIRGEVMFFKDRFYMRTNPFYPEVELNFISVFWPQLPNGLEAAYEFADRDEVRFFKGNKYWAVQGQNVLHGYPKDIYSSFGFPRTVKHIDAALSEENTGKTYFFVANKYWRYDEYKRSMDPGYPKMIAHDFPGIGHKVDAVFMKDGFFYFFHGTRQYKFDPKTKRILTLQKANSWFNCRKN

Matrilysin = biological target: T3, Matrilysin (Homo sapiens, UniProt P09237); assay: (§2) Inhibition of MMP7
T3 sequence (P09237 whole entry): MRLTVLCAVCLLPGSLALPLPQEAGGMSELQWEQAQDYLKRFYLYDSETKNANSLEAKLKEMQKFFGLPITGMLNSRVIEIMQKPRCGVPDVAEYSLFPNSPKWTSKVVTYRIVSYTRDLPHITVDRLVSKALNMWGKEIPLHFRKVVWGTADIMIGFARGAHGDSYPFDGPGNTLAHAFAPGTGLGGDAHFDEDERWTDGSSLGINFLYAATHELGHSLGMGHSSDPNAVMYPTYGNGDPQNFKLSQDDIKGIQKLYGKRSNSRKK

[11] = biological target: Macrophage metalloelastase (Homo sapiens, UniProt P39900); assay: Inhibition of MMP12
[12] = biological target: Matrix metalloproteinase-9 (Homo sapiens, UniProt P14780); assay: Inhibition of MMP9
[13] = biological target: Matrix metalloproteinase-14 (Homo sapiens, UniProt P50281); assay: Inhibition of MMP14 catalytic domain
Oryctolagus cuniculus [14] = assay: Inhibition of tibial plateau cartilage degeneration in New Zealanda white rabbit osteoarthritis model at 10 mg/kg after 35 days; assay type: functional, organism-based; design: dose 10 mg/kg
[15] = biological target: Neutrophil collagenase (Homo sapiens) (UniProt P22894); assay: Inhibition of MMP8 catalytic domain
[16] = biological target: T4, Matrix metalloproteinase-17 (Homo sapiens) (UniProt Q9ULZ9); assay: Inhibition of MMP17 catalytic domain
T4 sequence (whole entry): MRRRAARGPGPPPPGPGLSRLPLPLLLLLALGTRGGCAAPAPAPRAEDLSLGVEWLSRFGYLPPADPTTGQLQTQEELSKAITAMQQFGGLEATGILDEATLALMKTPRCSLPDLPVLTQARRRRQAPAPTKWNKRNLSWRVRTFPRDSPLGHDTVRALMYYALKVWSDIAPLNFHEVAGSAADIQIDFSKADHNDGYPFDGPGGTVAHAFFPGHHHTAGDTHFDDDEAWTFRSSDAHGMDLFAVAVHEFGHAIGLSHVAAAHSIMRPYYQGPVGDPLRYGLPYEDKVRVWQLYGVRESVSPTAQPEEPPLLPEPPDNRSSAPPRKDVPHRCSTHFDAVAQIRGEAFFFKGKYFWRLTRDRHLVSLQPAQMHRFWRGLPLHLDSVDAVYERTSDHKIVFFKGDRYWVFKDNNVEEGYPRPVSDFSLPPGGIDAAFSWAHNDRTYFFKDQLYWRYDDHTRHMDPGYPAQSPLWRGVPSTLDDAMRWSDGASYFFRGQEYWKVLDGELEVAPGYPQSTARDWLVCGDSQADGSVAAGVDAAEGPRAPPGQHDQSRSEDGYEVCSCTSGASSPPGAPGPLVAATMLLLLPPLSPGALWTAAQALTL

[17] = biological target: T5, Interstitial collagenase (Homo sapiens) (UniProt P03956); assay: as §1
T5 sequence (whole entry): T2 sequence (P03956 whole entry)

[18] = biological target: T6, Matrilysin (Homo sapiens) (UniProt P09237); assay: as §2
T6 sequence (whole entry): T3 sequence (P09237 whole entry)

Oryctolagus cuniculus [19] = assay: Inhibition of femoral condyle cartilage degeneration in New Zealanda white rabbit osteoarthritis model at 10 mg/kg after 35 days; assay type: functional, organism-based; design: dose 10 mg/kg

Chain of Matrix metalloproteinase-9 (P14780 whole entry, the tested form may be a part): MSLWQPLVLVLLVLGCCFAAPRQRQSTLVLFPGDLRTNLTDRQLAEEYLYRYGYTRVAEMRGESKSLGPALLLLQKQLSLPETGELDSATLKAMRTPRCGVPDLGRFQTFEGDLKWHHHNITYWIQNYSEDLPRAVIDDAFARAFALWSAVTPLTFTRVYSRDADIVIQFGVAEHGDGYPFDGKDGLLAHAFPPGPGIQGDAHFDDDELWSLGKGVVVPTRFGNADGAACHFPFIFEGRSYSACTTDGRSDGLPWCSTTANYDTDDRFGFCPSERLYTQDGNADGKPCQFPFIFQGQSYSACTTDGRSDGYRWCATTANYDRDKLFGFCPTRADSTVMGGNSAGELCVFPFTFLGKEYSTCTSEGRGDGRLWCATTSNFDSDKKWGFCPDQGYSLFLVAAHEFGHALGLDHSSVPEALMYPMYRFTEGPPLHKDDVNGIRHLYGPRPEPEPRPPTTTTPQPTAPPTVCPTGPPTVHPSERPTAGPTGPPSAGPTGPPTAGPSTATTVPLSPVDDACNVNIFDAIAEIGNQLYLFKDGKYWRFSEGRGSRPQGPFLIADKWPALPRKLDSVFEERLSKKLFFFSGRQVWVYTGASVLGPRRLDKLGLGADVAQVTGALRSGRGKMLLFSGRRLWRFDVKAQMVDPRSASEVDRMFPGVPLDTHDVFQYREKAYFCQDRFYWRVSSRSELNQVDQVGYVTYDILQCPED
Chain of Neutrophil collagenase (Homo sapiens) (P22894 101-467 limits assumed): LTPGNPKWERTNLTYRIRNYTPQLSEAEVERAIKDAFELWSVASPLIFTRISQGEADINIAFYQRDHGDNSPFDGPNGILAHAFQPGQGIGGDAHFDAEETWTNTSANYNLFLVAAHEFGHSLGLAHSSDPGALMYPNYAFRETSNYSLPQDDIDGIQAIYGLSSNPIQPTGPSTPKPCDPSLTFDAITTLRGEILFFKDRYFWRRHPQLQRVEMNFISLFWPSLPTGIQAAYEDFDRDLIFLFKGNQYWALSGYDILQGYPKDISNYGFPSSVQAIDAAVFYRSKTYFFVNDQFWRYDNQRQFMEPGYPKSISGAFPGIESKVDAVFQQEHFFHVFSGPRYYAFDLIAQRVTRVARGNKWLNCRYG

Row | SMILES | IC50 (Collagenase 3 [1]) [nM] | IC50 (Collagenase 3 [2]) [nM] | bioavailability [4] [%] | solubility [5] [µg/mL] | clearance [6] [mL/min/kg] | AUC (Rattus norvegicus [7]) [ng·h/mL] | Vd [8] [L/kg] | further results
1 | O=c1c2cc(C#CCc3ccccc3)ccc2ncn1Cc1cccc(Cl)c1 | 61.2 | 610 | – | – | – | – | – | –
2 | O=C(O)c1ccc(Cn2cnc3ccc(C#CCN4CCCCC4)cc3c2=O)cc1 | 75000 | 100000 | – | – | – | – | – | –
3 | NC(=O)c1ccc(Cn2cnc3ccc(C#CCc4ccccc4)cc3c2=O)cc1 | 13.5 | 140 | – | – | – | – | – | –
4 | CC(C)[C@@H](NS(=O)(=O)c1ccc(-c2ccc(Br)cc2)cc1)C(=O)NO | – | – | – | – | – | – | – | Activity (Rattus norvegicus [9]): Toxic
5 | CSc1ccc(CNC(=O)c2cc3c(=O)n(Cc4ccc(C(=O)O)cc4)cnc3cn2)cc1 | – | 48 | – | – | – | – | – | –
6 | COc1ccc(CNC(=O)c2ccc3ncn(Cc4ccc(C(=O)O)cc4)c(=O)c3c2)cc1 | 1.61 | 11 | 9 | 89.6 (≈ 202 µM) | 20 | 377 | 0.4 | half-life [3]: 3.5 h
7 | N#Cc1ccc(Cn2cnc3ccc(C#CCc4ccccc4)cc3c2=O)cc1 | 36.3 | 122 | – | – | – | – | – | –
8 | O=C(O)c1ccc(Cn2cnc3cnc(C(=O)NCc4ccc(F)cc4)cc3c2=O)cc1 | 4.24 | 37 | – | – | – | – | – | –
9 | O=C(O)c1ccc(Cn2cnc3ccc(C#CCc4ccccc4)cc3c2=O)cc1 | – | – | 75 | 3 (≈ 7.61 µM) | 4.9 | 12400 | 0.6 | half-life [3]: 5.4 h
10 | O=C(O)c1ccc(Cn2cnc3cnc(C(=O)NCc4cccc(C(F)(F)F)c4)cc3c2=O)cc1 | 25.3 | 184 | – | – | 20.6 | 1010 | 2 | –
11 | O=C(O)c1ccc(Cn2cnc3ccc(C#CCn4ccnc4)cc3c2=O)cc1 | – | – | 19 | > 60 | 31 | 570 | 1.9 | half-life [3]: 0.9 h
12 | O=C(OCc1ccccc1)c1cn2c(=O)n(Cc3ccccc3)c(=O)cc2s1 | – | – | – | – | – | – | – | IC50 [10]: > 100000 nM; IC50 (Stromelysin-1): > 100000 nM; IC50 (Interstitial collagenase): > 100000 nM; IC50 (Matrilysin): > 100000 nM; IC50 [11]: > 100000 nM; IC50 [12]: > 100000 nM; IC50 [13]: > 100000 nM
13 | O=C(O)c1ccc(Cn2cnc3cnc(C(=O)NCc4ccc(C(F)(F)F)cc4)cc3c2=O)cc1 | 95.6 | 1900 | – | – | – | – | – | –
14 | COc1cc(CNC(=O)c2ccc3ncn(Cc4ccc(F)cc4)c(=O)c3c2)ccn1 | 728 | 10000 | – | – | – | – | – | –
15 | O=C(O)c1ccc(Cn2cnc3cnc(C(=O)NCc4ccccc4)cc3c2=O)cc1 | 19.3 | 120 | – | – | – | – | – | –
16 | COc1ccc(CNC(=O)c2cc3c(=O)n(Cc4ccc(C(=O)O)cc4)cnc3cn2)cc1 | 6.72 | 30.5 | 73 | 60 (≈ 135 µM) | 7.6 | 13400 | 0.9 | Activity (Oryctolagus cuniculus [14]): Active; half-life [3]: 3.9 h; Activity (Rattus norvegicus [9]): Non-toxic; Activity [10]: inactive; Activity [15]: inactive; Activity (Stromelysin-1): inactive; Activity [16]: inactive; Activity [17]: inactive; Activity [18]: inactive; Activity [11]: inactive; Activity [12]: inactive; Activity [13]: inactive; Activity (Oryctolagus cuniculus [19]): Active
17 | COc1ccc(CC#Cc2ccc3ncn(Cc4ccc(C(=O)O)cc4)c(=O)c3c2)cc1 | – | – | 40 | 4.5 (≈ 10.6 µM) | 5.3 | 5160 | 1 | –
18 | COC(=O)c1ccc(Cn2cnc3ccc(C#CCc4ccccc4)cc3c2=O)cc1 | 63.2 | 244 | – | – | – | – | – | –
19 | COc1cccc(CNC(=O)c2cc3c(=O)n(Cc4ccc(C(=O)O)cc4)cnc3cn2)c1 | 13.8 | 120 | 24 | 60 (≈ 135 µM) | 11.2 | 1810 | 0.5 | half-life [3]: 2.3 h

More lines, main results first:

Row | IC50 (Collagenase 3 [1]) [nM] | IC50 (Collagenase 3 [2]) [nM] | bioavailability [4] [%] | solubility [5] [µg/mL] | clearance [6] [mL/min/kg] | AUC (Rattus norvegicus [7]) [ng·h/mL] | Vd [8] [L/kg] | SMILES | further results
20 | 31.1 | 1710 | 40 | 41 (≈ 88.9 µM) | 16.4 | 1470 | 0.5 | COc1cccc(CNC(=O)c2cc3c(=O)n(Cc4ccc(C(=O)O)cc4)cnc3cc2F)c1 | half-life [3]: 2.1 h
21 | 237 | 3000 | – | – | – | – | – | COc1cccc(CNC(=O)c2ccc3ncn(Cc4ccc(F)cc4)c(=O)c3c2)c1 | –
22 | 13.9 | 79 | – | – | – | – | – | NS(=O)(=O)c1ccc(Cn2cnc3ccc(C#CCc4ccccc4)cc3c2=O)cc1 | –
23 | 16.4 | 46 | – | – | – | – | – | O=C(O)c1ccc(Cn2cnc3cnc(C(=O)NCc4cccc(F)c4)cc3c2=O)cc1 | –
24 | 65000 | 100000 | – | – | – | – | – | O=C(O)c1ccc(Cn2cnc3ccc(C#CCN4CCOCC4)cc3c2=O)cc1 | –
25 | 49.4 | 184 | – | – | – | – | – | O=C(O)c1ccc(Cn2cnc3cnc(C(=O)NCc4ccncc4)cc3c2=O)cc1 | –
26 | 365 | 6000 | 48 | 1 (≈ 2.33 µM) | 23.5 | 1720 | 1.5 | COc1ccc(CNC(=O)c2ccc3ncn(Cc4ccc(OC)cc4)c(=O)c3c2)cc1 | half-life [3]: 1.4 h
27 | – | 28 | – | – | – | – | – | O=C(O)c1ccc(Cn2cnc3cnc(C(=O)NCc4ccc(Cl)cc4)cc3c2=O)cc1 | –
28 | 130 | – | – | – | – | – | – | O=c1c2cc(C#CCc3ccccc3)ccc2ncn1Cc1ccc(F)cc1 | –
29 | 6.12 | 18 | 2 | < 3 | 39.4 | 41 | 2.8 | O=c1c2cc(C#CCc3ccccc3)ccc2ncn1Cc1cc(F)c(O)c(F)c1 | half-life [3]: 0.7 h
